Reference: US12343350B2, “Istaroxime-containing intravenous formulation for the treatment of acute heart failure (AHF)” (Windtree Therapeutics, Inc., priority 2019, dated 2025)

Test system: patients with Acute Decompensated Heart Failure
Test: Clinical study of istaroxime 24 h i.v. infusion in Acute Decompensated Heart Failure, echocardiography
Type: in vivo, human
Procedure: Echocardiography was performed on patients according to international standards (see, for example, Lang R M et al., J Am Soc Echocardiogr 2005; 18(12):1440-63; Nagueh S F et al., Eur J Echocardiogr 2009; 10(2):165-93; Evangelista A et al., Eur J Echocardiogr 2008; 9(4):438-48). Echocardiography was performed by expert physicians or sonographers at the sites. Echocardiography was done at screening, baseline, 6 hours after infusion start, 24 hours after infusion start (just before the end of infusion), and 48 hours after infusion start.
The following parameters were recorded for each patient at each timepoint and centrally measured by the CoreLab: • 1. Cardiac dimension measures: • a. Left ventricle end diastolic diameter (EDD): measured with M-mode echocardiography at the level of mitral valve (MV) leaflets from parasternal long axis view (PLAX) (normal range [NR]: 42-59 mm males and 39-53 mm females); • b. Left ventricle end systolic diameter (ESD): measured with M-mode echocardiography at the level of mitral valve (MV) leaflets from PLAX (NR: 25-35 mm); • c. Left ventricle end diastolic volume (EDV): measured with M-mode echocardiography at the level of mitral valve (MV) leaflets from PLAX (NR: 67-155 mL males and 56-104 mL females); • d. Left ventricle end systolic volume (ESV): measured with M-mode echocardiography at the level of mitral valve (MV) leaflets from PLAX (NR: 22-58 mL males and 19-49 mL females); • e. Left atrium diameter (LAD): measured at end-ventricular systole with M-mode echocardiography from PLAX. (NR: 30-40 mm males and 27-38 mm females) • f. Left atrium area (LAA): measured from apical four chamber view ([…]); and • g. Left atrium volume (LAV): derived from area-length measured from apical four chamber view (NR: 18-58 mL males and 22-52 mL females). • 2. Left ventricle diastolic function parameters: • a. E wave: measured from mitral valve pulsed wave Doppler, is the peak velocity of early filling. […] A wave: measured from mitral valve pulsed wave Doppler is the peak velocity of late atrial filling. Not evaluable in patients with AF; • c. E wave deceleration time (EDT): measured from mitral valve pulsed wave Doppler represent the slope of the descending part of E wave; • d. E/A ratio: determines the type of diastolic filling pattern (normal E/A=1-2 and EDT=150-200 ms, abnormal relaxation E/A<1 and […], pseudonormal E/A=0.8-1.5; restrictive […] and EDT<160 ms). Not evaluable in patients with AF; • e. Ea: measured with tissue Doppler method at the lateral and septal side of the mitral annulus from apical four chamber view is the early diastolic velocity. The value has been calculated as the average between Ea lateral and Ea septal. ([…]) (see Nagueh S F et al., Eur J Echocardiogr. 2009; 10(2):165-93); • f. Aa: measured with tissue Doppler method at the lateral and septal side of the mitral annulus from apical four chamber view is the late atrial diastolic velocity. The value has been calculated as the average between Aa lateral and Aa septal. Not evaluable in patients with AF; and • g. E/Ea ratio: this is a derived measure from E and Ea value. This is highly correlated with left ventricle filling pressure and with prognosis in patients with HF. (NR: <13) (see Nagueh S F et al., supra). • 3. Left ventricle systolic function parameters: • a. Left ventricle ejection fraction (LVEF): measured with Simpson biplane method according to international recommendations from apical four chamber view and apical two chamber view. ([…]) (see Lang R M et al., J Am Soc Echocardiogr. 2005; 18(12):1440-63); and • b. Sa: measured with tissue Doppler method at the lateral and septal side of the mitral annulus from apical four chamber view. The value has been calculated as the average between Sa lateral and Sa septal. […] Overall cardiac contraction parameters: • a. […]

[1] = 0.5 μg/kg/min i.v. for 24 h, at 48 hours
[2] = 0.5 μg/kg/min i.v., at 6 hours of infusion
[3] = 0.5 μg/kg/min i.v., at 24 hours of infusion
[4] = 1.0 μg/kg/min i.v. for 24 h, at 48 hours
[5] = 1.0 μg/kg/min i.v., at 6 hours of infusion
[6] = 1.0 μg/kg/min i.v., at 24 hours of infusion

C[C@]12CCC(=NOCCN)C[C@@H]1C(=O)C[C@@H]1[C@@H]2CC[C@]2(C)C(=O)CC[C@@H]12 [Istaroxime, (3Z,5a)-3-[(2-aminoethoxy)imino]androstane-6,17-dione]
CI change [1]: 0.191 ± 0.426 l/min/m^2
CO change [1]: 0.350 ± 0.788 L/min
E/A ratio change [1]: −0.278 ± 1.043
E/e′ ratio change [1]: −2.570 ± 3.654
LVEF change [1]: 1.28 ± 3.693%
SV change [1]: 4.815 ± 9.832 ml/beat
SVI change [1]: 2.762 ± 5.603 ml/beat/m^2
Sa change [1]: 0.224 ± 0.811 cm/s
A wave change [2]: 1.76 ± 13.572 cm/s
CI change [2]: 0.209 ± 0.445 l/min/m2
CO change [2]: 0.385 ± 0.843 L/min
E wave change [2]: -3.33 ± 14.764 cm/s
E/A ratio change [2]: −0.286 ± 0.866
E/e′ ratio change [2]: −3.183 ± 5.628
EDT change [2]: 6.83 ± 47.921 ms
LAA change [2]: −0.33 ± 1.885 cm^2
LAV change [2]: -1.16 ± 11.265 mL
S Right V change [2]: 1.25 ± 2.185 cm/s
SV change [2]: 7.724 ± 11.752 ml/beat
SVI change [2]: 4.198 ± 6.218 ml/beat/m2
Sa Left V change [2]: 0.613 ± 1.035 cm/s
e′ change [2]: 0.61 ± 1.010 cm/s
A wave change [3]: 5.13 ± 10.990 cm/s
CI change [3]: 0.264 ± 0.369 l/min/m2
CO change [3]: 0.486 ± 0.696 L/min
E wave change [3]: -8.14 ± 17.640 cm/s
E/A ratio change [3]: −0.647 ± 0.812
E/e′ ratio change [3]: −4.548 ± 4.754
EDT change [3]: 12.88 ± 54.954 ms
LAA change [3]: −1.70 ± 2.463 cm^2
LAV change [3]: -7.94 ± 13.269 mL
S Right V change [3]: 1.10 ± 1.780 cm/s
SV change [3]: 9.725 ± 12.192 ml/beat
SVI change [3]: 5.333 ± 6.664 ml/beat/m2
Sa Left V change [3]: 0.679 ± 0.907 cm/s
e′ change [3]: 0.94 ± 1.089 cm/s
CI change [4]: 0.205 ± 0.407 l/min/m^2
CO change [4]: 0.368 ± 0.735 L/min
E/A ratio change [4]: −0.356 ± 0.967
E/e′ ratio change [4]: −2.218 ± 3.193
LVEF change [4]: 2.06 ± 4.975%
SV change [4]: 5.203 ± 8.078 ml/beat
SVI change [4]: 2.913 ± 4.572 ml/beat/m^2
Sa change [4]: 0.257 ± 0.771 cm/s
A wave change [5]: 5.56 ± 17.280 cm/s
CI change [5]: 0.140 ± 0.434 l/min/m2
CO change [5]: 0.228 ± 0.760 L/min
E wave change [5]: -9.13 ± 17.464 cm/s
E/A ratio change [5]: −0.317 ± 0.898
E/e′ ratio change [5]: −2.028 ± 3.652
EDT change [5]: 20.37 ± 50.849 ms
LAA change [5]: −0.84 ± 2.421 cm^2
LAV change [5]: -4.92 ± 14.390 mL
S Right V change [5]: 2.00 ± 1.907 cm/s
SV change [5]: 7.269 ± 8.134 ml/beat
SVI change [5]: 4.187 ± 4.641 ml/beat/m2
Sa Left V change [5]: 0.908 ± 0.936 cm/s
e′ change [5]: 0.01 ± 1.154 cm/s
A wave change [6]: 11.10 ± 16.498 cm/s
CI change [6]: 0.140 ± 0.443 l/min/m2
CO change [6]: 0.239 ± 0.786 L/min
E wave change [6]: -14.24 ± 24.416 cm/s
E/A ratio change [6]: −0.722 ± 1.068
E/e′ ratio change [6]: −3.191 ± 2.623
EDT change [6]: 9.79 ± 52.212 ms
LAA change [6]: −2.56 ± 2.972 cm^2
LAV change [6]: -13.81 ± 17.198 mL
S Right V change [6]: 1.55 ± 2.012 cm/s
SV change [6]: 9.339 ± 8.875 ml/beat
SVI change [6]: 5.318 ± 4.955 ml/beat/m2
Sa Left V change [6]: 0.803 ± 1.023 cm/s
e′ change [6]: 0.91 ± 1.792 cm/s
